According to patent US20260216294A1, “BETA 2-ADRENERGIC RECEPTOR AGONISTS FOR TREATMENT OR PREVENTION OF MUSCLE WASTING” (ATROGI AB, priority 2023, published 2026):

Experiments:
[1] = system: L6-myotubes; assay: Glucose uptake in differentiated L6-myotubes (Biological Example 2); format: cell-based; conditions: glucose uptake in differentiated L6-myotubes; compound at 10 μM, activity relative to isoproterenol at 10 μM; read-out: Biological example 2 (GU)
How it was run: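 Uptake was quantified as radioactivity in 0.2 M NaOH lysates after a 10 min pulse of 50 nM ^3H-2-deoxyglucose. The pulse followed two agonist exposures at 1×10^−5 M final (isoprenaline or test compound): 1 h 40 min, then 20 min in glucose-free medium after washing. L6 myotubes had been starved overnight in medium with 0.5% fatty-acid-free BSA.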

[2] = system: L6-myotubes; assay: Measurement of intracellular cAMP levels in differentiated L6-myotubes (Biological Example 3); format: cell-based; conditions: 0.25 h, intracellular cAMP in differentiated L6-myotubes; compound at 10 μM, activity relative to isoproterenol at 10 μM
How it was run: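 Intracellular cAMP quantified by AlphaScreen after ethanol extraction and lysis of L6 myotubes. Cells were serum-starved overnight, then exposed for 15 min to compound (final 1×10^−5 M) or isoprenaline in IBMX-containing (1 mM) HBSS buffer, pH 7.4.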

| Structure (SMILES) | Emax at 10 µM [1] [%] | Emax at 10 µM [2] [%] |
| --- | --- | --- |
| CC(C)(NC[C@H](O)c1cncc(F)c1)[C@H]1CC[C@@H](O)CC1 [Compound 286, (R)-1-(5-fluoro-3-pyridyl)-2-{1-methyl-1-[(1s,4S)-4-hydroxycyclohexyl]ethylamino}-1-ethanol] | 25 to 50 | < 25 |
| O[C@@H](CNCC[C@H]1CC[C@@H](OCc2ccccc2)CC1)c1cccc(F)c1 [Compound 287, (R)-1-(m-fluorophenyl)-2-{2-[(1s,4S)-4-(benzyloxy)cyclohexyl]ethylamino}-1-ethanol] | 50 to 75 | < 25 |
| O[C@@H](CNCC[C@H]1CC[C@H](OCc2ccccc2)CC1)c1cccc(F)c1 [Compound 288, (R)-1-(m-fluorophenyl)-2-{2-[(1r,4R)-4-(benzyloxy)cyclohexyl]ethylamino}-1-ethanol] | 25 to 50 | < 25 |
| CC(C)(CC[C@H]1CC[C@H](O)CC1)NC[C@H](O)c1cncc(F)c1 [Compound 289, (R)-2-{1,1-dimethyl-3-[(1r,4S)-4-hydroxycyclohexyl]propylamino}-1-(5-fluoro-3-pyridyl)-1-ethanol] | 25 to 50 | < 25 |
| CC(C)(CC[C@H]1CC[C@H](O)CC1)NC[C@H](O)c1cccc(F)c1 [Compound 290, (R)-2-{1,1-dimethyl-3-[(1r,4S)-4-hydroxycyclohexyl]propylamino}-1-(m-fluorophenyl)-1-ethanol] | 25 to 50 | < 25 |
| O[C@@H](CNCC[C@H]1CC[C@@H](OCc2ccccc2)CC1)c1cncc(F)c1 [Compound 291, (R)-1-(5-fluoro-3-pyridyl)-2-{2-[(1s,4S)-4-(benzyloxy)cyclohexyl]ethylamino}-1-ethanol] | 50 to 75 | < 25 |
| O[C@@H](CNCC[C@H]1CC[C@H](OCc2ccccc2)CC1)c1cncc(F)c1 [Compound 292, (R)-1-(5-fluoro-3-pyridyl)-2-{2-[(1r,4R)-4-(benzyloxy)cyclohexyl]ethylamino}-1-ethanol] | < 25 | < 25 |
| O[C@@H](CNCC[C@H]1CC[C@@H](O)CC1)c1cncc(F)c1 [Compound 293, (R)-1-(5-fluoro-3-pyridyl)-2-{2-[(1s,4S)-4-hydroxycyclohexyl]ethylamino}-1-ethanol] | 25 to 50 | < 25 |
| O[C@@H](CNCC[C@H]1CC[C@H](O)CC1)c1cncc(F)c1 [Compound 294, (R)-1-(5-fluoro-3-pyridyl)-2-{2-[(1r,4R)-4-hydroxycyclohexyl]ethylamino}-1-ethanol] | 25 to 50 | < 25 |
| CC(C)(CC[C@H]1CC[C@@H](O)CC1)NC[C@H](O)c1cccc(F)c1 [Compound 295, (R)-2-{1,1-dimethyl-3-[(1s,4R)-4-hydroxycyclohexyl]propylamino}-1-(m-fluorophenyl)-1-ethanol] | > 75 | < 25 |
| CC(C)(CC[C@H]1CC[C@@H](O)CC1)NC[C@H](O)c1cncc(F)c1 [Compound 296, (R)-2-{1,1-dimethyl-3-[(1s,4R)-4-hydroxycyclohexyl]propylamino}-1-(5-fluoro-3-pyridyl)-1-ethanol] | > 75 | < 25 |
| O[C@@H](CNCC[C@H]1CC[C@@H](O)CC1)c1cccc(F)c1 [Compound 297, (R)-1-(m-fluorophenyl)-2-{2-[(1s,4S)-4-hydroxycyclohexyl]ethylamino}-1-ethanol] | 50 to 75 | < 25 |
| O[C@@H](CNCC[C@H]1CC[C@H](O)CC1)c1cccc(F)c1 [Compound 298, (R)-1-(m-fluorophenyl)-2-{2-[(1r,4R)-4-hydroxycyclohexyl]ethylamino}-1-ethanol] | 25 to 50 | < 25 |
| CC(C)(C[C@H]1CC[C@H](O)CC1)NC[C@H](O)c1cncc(F)c1 [Compound 299, (R)-2-{1,1-dimethyl-2-[(1r,4R)-4-hydroxycyclohexyl]ethylamino}-1-(5-fluoro-3-pyridyl)-1-ethanol] | 50 to 75 | < 25 |
| CC(C)(C[C@H]1CC[C@H](O)CC1)NC[C@H](O)c1cccc(F)c1 [Compound 300, (R)-2-{1,1-dimethyl-2-[(1r,4R)-4-hydroxycyclohexyl]ethylamino}-1-(m-fluorophenyl)-1-ethanol] | > 75 | < 25 |
| CC(C)(C[C@H]1CC[C@@H](O)CC1)NC[C@H](O)c1cncc(F)c1 [Compound 301, (R)-2-{1,1-dimethyl-2-[(1s,4S)-4-hydroxycyclohexyl]ethylamino}-1-(5-fluoro-3-pyridyl)-1-ethanol] | > 75 | < 25 |
| CC(C)(C[C@H]1CC[C@@H](O)CC1)NC[C@H](O)c1cccc(F)c1 [Compound 302, (R)-2-{1,1-dimethyl-2-[(1s,4S)-4-hydroxycyclohexyl]ethylamino}-1-(m-fluorophenyl)-1-ethanol] | 50 to 75 | < 25 |
| O[C@@H](CNCCC[C@H]1CC[C@H](O)CC1)c1cccc(F)c1 [Compound 303, (R)-1-(m-fluorophenyl)-2-{3-[(1r,4S)-4-hydroxycyclohexyl]propylamino}-1-ethanol] | 50 to 75 | < 25 |
| O[C@@H](CNCCC[C@H]1CC[C@@H](O)CC1)c1cncc(F)c1 [Compound 304, (R)-1-(5-fluoro-3-pyridyl)-2-{3-[(1s,4R)-4-hydroxycyclohexyl]propylamino}-1-ethanol] | 50 to 75 | < 25 |
| O[C@@H](CNCCC[C@H]1CC[C@H](O)CC1)c1cncc(F)c1 [Compound 305, (R)-1-(5-fluoro-3-pyridyl)-2-{3-[(1r,4S)-4-hydroxycyclohexyl]propylamino}-1-ethanol] | 25 to 50 | < 25 |
| O[C@@H](CNCCC[C@H]1CC[C@@H](O)CC1)c1cccc(F)c1 [Compound 306, (R)-1-(m-fluorophenyl)-2-{3-[(1s,4R)-4-hydroxycyclohexyl]propylamino}-1-ethanol] | 25 to 50 | < 25 |
| CC(=O)N[C@H]1CC[C@@H](CNC[C@H](O)c2cccc(F)c2)CC1 [Compound 307] | 50 to 75 | < 25 |
| CC(=O)N[C@H]1CC[C@H](CNC[C@H](O)c2cccc(F)c2)CC1 [Compound 308] | 50 to 75 | < 25 |
| CC(=O)N[C@H]1CC[C@H](CNC[C@H](O)c2cncc(F)c2)CC1 [Compound 309] | 50 to 75 | < 25 |
| CC(=O)N[C@H]1CC[C@@H](CNC[C@H](O)c2cncc(F)c2)CC1 [Compound 310] | 25 to 50 | < 25 |
| CS(=O)(=O)N[C@H]1CC[C@H](CNC[C@H](O)c2cccc(F)c2)CC1 [Compound 311] | 50 to 75 | < 25 |
| CS(=O)(=O)N[C@H]1CC[C@@H](CNC[C@H](O)c2cccc(F)c2)CC1 [Compound 312, (R)-1-(m-fluorophenyl)-2-({[(1s,4S)-4-(mesylamino)cyclohexyl]methyl}amino)-1-ethanol] | 50 to 75 | < 25 |
| CS(=O)(=O)N[C@H]1CC[C@H](CNC[C@H](O)c2cncc(F)c2)CC1 [Compound 313] | 25 to 50 | < 25 |
